Reference: patent publication US20260317320A1, “C5AR1 ANTAGONISTS AND USES THEREOF” (Vanqua Bio, Inc., priority 2022, published 2026)
pIC50: −log10 of the molar value. Where two headings read alike, the source gives them in different places.

Tests used:
[1] = biological target: T1, complement C5a receptor 1 (C5aR1) (Homo sapiens, UniProt P21730); test: β-arrestin recruitment via C5aR1 activation in live CHO-K1 cells (PathHunter), agonist mode; format: cell-based
T1 construct: β-galactosidase fragment (PathHunter enzyme complementation); host or cells: CHO-K1 (PathHunter CHO-K1 C5aR1 β-arrestin cell line)
T1 sequence (P21730 1-350): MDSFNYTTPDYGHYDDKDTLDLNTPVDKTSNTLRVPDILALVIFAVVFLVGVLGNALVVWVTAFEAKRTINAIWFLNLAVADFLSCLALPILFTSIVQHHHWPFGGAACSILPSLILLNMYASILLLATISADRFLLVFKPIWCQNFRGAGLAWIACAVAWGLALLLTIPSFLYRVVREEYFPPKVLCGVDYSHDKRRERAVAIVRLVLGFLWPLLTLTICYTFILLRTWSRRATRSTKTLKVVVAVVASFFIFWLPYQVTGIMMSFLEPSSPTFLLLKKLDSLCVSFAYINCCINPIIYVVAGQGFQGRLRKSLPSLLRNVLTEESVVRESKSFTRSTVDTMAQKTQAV
Experimental: (§1) Exemplary compounds were evaluated for classical GPCR β-arrestin recruitment via complement C5a receptor 1 (C5aR1) activation in live CHO-K1 cells. This cell line expresses two fragments of the […] protein coupled to β-arrestin and C5aR1. Complementation of the two fragments allows for the assessment of both C5aR1 agonism and antagonism. Recombinant hC5a (EC90) was used as the competing natural agonist against disclosed compounds (more information on the expanded protocol and cell line can be found on the manufacturer's website: PathHunter® CHO-K1 C5aR1 β-arrestin cell line, DiscoverX, Catalog No. 93-0557C2). […] IC50 ranges: A: IC50≤500 nM; B: 500 nM<IC50≤5 uM; C: 5 uM<IC50≤100 uM; D: IC50>100 uM.

[2] = biological target: T1, complement C5a receptor 1 (C5aR1); test: β-arrestin recruitment via C5aR1 activation in live CHO-K1 cells (PathHunter), antagonist mode; format: cell-based
Experimental: as §1; call rule not given here

[3] = antagonist mode, recombinant hC5a (EC90) as competing natural agonist, live CHO-K1 cells, read-out: [Antagonist] B-arrestin2 recruitment: Average IC50

| SMILES | pIC50 [2, 3] | other results |
| --- | --- | --- |
| Cc1cccc(F)c1N1CCC(c2cc3nccnc3n([C@@H]3CCCc4cccnc43)c2=O)CC1 [40a, (R)-7-(1-(2-Fluoro-6-methylphenyl)piperidin-4-yl)-5-(5,6,7,8-tetrahydroquinolin-8-yl)pyrido[2,3-b]pyrazin-6(5H)-one] | 4.00 to 5.30 | [Agonist] B-arrestin2 recruitment: Average EC50 (nM) [1]: Non-Active |
| Cc1cccc(F)c1N1CCC(c2cc3nccnc3n([C@H]3CCCc4cccnc43)c2=O)CC1 [40b, (S)-7-(1-(2-Fluoro-6-methylphenyl)piperidin-4-yl)-5-(5,6,7,8-tetrahydroquinolin-8-yl)pyrido[2,3-b]pyrazin-6(5H)-one] | < 4.00 | [Agonist] B-arrestin2 recruitment: Average EC50 (nM) [1]: Non-Active |
| Cc1ccc2c(c1)nc(C1CCN(c3c(C)cccc3F)CC1)c(=O)n2Cc1ncccc1C(F)(F)F [142B, 3-(1-(2-Fluoro-6-methylphenyl)piperidin-4-yl)-6-methyl-1-((3-(trifluoromethyl)pyridin-2-yl)methyl)quinoxalin-2(1H)-one] | – | [Agonist] B-arrestin2 recruitment: Average EC50 (nM) [1]: Non-Active |
| Cc1cccc(F)c1[C@@H]1CC[C@H](c2cc3nccnc3n(Cc3ncccc3C(F)(F)F)c2=O)C1 [200A, 7-((1S,3R)-3-(2-Fluoro-6-methylphenyl)cyclopentyl)-5-((3-(trifluoromethyl)pyridin-2-yl)methyl)pyrido[2,3-b]pyrazin-6(5H)-one] | – | [Agonist] B-arrestin2 recruitment: Average EC50 (nM) ([1]; at 10 μM): Non-Active at 10 μM |
| Cc1cccc(F)c1[C@H]1CC[C@H](c2cc3nccnc3n(Cc3ncccc3C(F)(F)F)c2=O)C1 [200B, 7-((1S,3S)-3-(2-Fluoro-6-methylphenyl)cyclopentyl)-5-((3-(trifluoromethyl)pyridin-2-yl)methyl)pyrido[2,3-b]pyrazin-6(5H)-one] | – | [Agonist] B-arrestin2 recruitment: Average EC50 (nM) ([1]; at 10 μM): Non-Active at 10 μM |
| Cc1cnc2cc(N3CCC(c4c(C)cccc4F)CC3)c(=O)n(Cc3ncccc3C(F)(F)F)c2n1 [compound 101, 7-(4-(2-Fluoro-6-methylphenyl)piperidin-1-yl)-3-methyl-5-((3-(trifluoromethyl)pyridin-2-yl)methyl)pyrido[2,3-b]pyrazin-6(5H)-one] | 5.30 to 6.30 | – |
| Cc1ncc2cc(C3CCN(c4c(C)cccc4F)CC3)c(=O)n(Cc3ncccc3OC(F)(F)F)c2n1 [compound 102, 6-(1-(2-Fluoro-6-methylphenyl)piperidin-4-yl)-2-methyl-8-((3-(trifluoromethoxy)pyridin-2-yl)methyl)pyrido[2,3-d]pyrimidin-7(8H)-one] | > 6.30 | – |
| Cc1cnc2c(C)c(C3CCN(c4c(C)cccc4F)CC3)c(=O)n(Cc3nccnc3C)c2n1 [compound 103, 7-(1-(2-Fluoro-6-methylphenyl)piperidin-4-yl)-3,8-dimethyl-5-((3-methylpyrazin-2-yl)methyl)pyrido[2,3-b]pyrazin-6(5H)-one] | 5.30 to 6.30 | – |
| Cc1cnc2cc(N3CCN(c4c(C)cccc4F)CC3)c(=O)n(Cc3nccnc3C)c2n1 [compound 104, 7-(4-(2-Fluoro-6-methylphenyl)piperazin-1-yl)-3-methyl-5-((3-methylpyrazin-2-yl)methyl)pyrido[2,3-b]pyrazin-6(5H)-one] | 5.30 to 6.30 | – |
| Cc1ncc2cc(C3CCN(c4c(C)cccc4F)CC3)c(=O)n(Cc3ncccc3OC(F)F)c2n1 [compound 105, 8-((3-(Difluoromethoxy)pyridin-2-yl)methyl)-6-(1-(2-fluoro-6-methylphenyl)piperidin-4-yl)-2-methylpyrido[2,3-d]pyrimidin-7(8H)-one] | > 6.30 | – |
| Cc1cnc2cc(C3CCN(c4c(C)cccc4F)CC3)c(=O)n(Cc3nccnc3C)c2n1 [compound 106, 7-(1-(2-Fluoro-6-methylphenyl)piperidin-4-yl)-3-methyl-5-((3-methylpyrazin-2-yl)methyl)pyrido[2,3-b]pyrazin-6(5H)-one] | > 6.30 | – |
| Cc1ncc2cc(C3CCN(c4c(C)cccc4F)CC3)c(=O)n(Cc3nccnc3C)c2n1 [compound 107, 6-(1-(2-Fluoro-6-methylphenyl)piperidin-4-yl)-2-methyl-8-((3-methylpyrazin-2-yl)methyl)pyrido[2,3-d]pyrimidin-7(8H)-one] | 5.30 to 6.30 | – |
| Cc1nccnc1Cn1c(=O)c(C2CCN(c3ccccc3OC(F)(F)F)CC2)cc2nccnc21 [compound 108, 5-((3-Methylpyrazin-2-yl)methyl)-7-(1-(2-(trifluoromethoxy)phenyl)piperidin-4-yl)pyrido[2,3-b]pyrazin-6(5H)-one] | 5.30 to 6.30 | – |
| Cc1ccccc1N1CCC(c2cc3nccnc3n(Cc3nccnc3C)c2=O)CC1 [compound 109, 5-((3-Methylpyrazin-2-yl)methyl)-7-(1-(o-tolyl)piperidin-4-yl)pyrido[2,3-b]pyrazin-6(5H)-one] | – | pIC50 [2]: 5.30 to 6.30 |
| Cc1ncc2cc(N3CCN(c4c(C)cccc4F)CC3)c(=O)n(Cc3ncccc3OC(F)(F)F)c2n1 [compound 110, 6-(4-(2-Fluoro-6-methylphenyl)piperazin-1-yl)-2-methyl-8-((3-(trifluoromethoxy)pyridin-2-yl)methyl)pyrido[2,3-d]pyrimidin-7(8H)-one] | > 6.30 | – |
| Cc1nccnc1Cn1c(=O)c(C2CCN(c3ccccc3OC(F)F)CC2)cc2nccnc21 [compound 111, 7-(1-(2-(Difluoromethoxy)phenyl)piperidin-4-yl)-5-((3-methylpyrazin-2-yl)methyl)pyrido[2,3-b]pyrazin-6(5H)-one] | 4.00 to 5.30 | – |
| COc1cnc2cc(C3CCN(c4c(C)cccc4F)CC3)c(=O)n(Cc3nccnc3C)c2n1 [compound 112, 7-(1-(2-Fluoro-6-methylphenyl)piperidin-4-yl)-3-methoxy-5-((3-methylpyrazin-2-yl)methyl)pyrido[2,3-b]pyrazin-6(5H)-one] | 4.00 to 5.30 | – |
| Cc1cnc2cc(C3CCN(c4ccnnc4C)CC3)c(=O)n(Cc3ncccc3C(F)(F)F)c2n1 [compound 113, 3-Methyl-7-(1-(3-methylpyridazin-4-yl)piperidin-4-yl)-5-((3-(trifluoromethyl)pyridin-2-yl)methyl)pyrido[2,3-b]pyrazin-6(5H)-one] | < 4.00 | – |
| Cc1cnc2cc(C3CCN(c4cncnc4C)CC3)c(=O)n(Cc3ncccc3C(F)(F)F)c2n1 [compound 114, 3-Methyl-7-(1-(4-methylpyrimidin-5-yl)piperidin-4-yl)-5-((3-(trifluoromethyl)pyridin-2-yl)methyl)pyrido[2,3-b]pyrazin-6(5H)-one] | 4.00 to 5.30 | – |
| Cc1cnc2cc(C3CCN(c4nnccc4C)CC3)c(=O)n(Cc3ncccc3C(F)(F)F)c2n1 [compound 115, 3-Methyl-7-(1-(4-methylpyridazin-3-yl)piperidin-4-yl)-5-((3-(trifluoromethyl)pyridin-2-yl)methyl)pyrido[2,3-b]pyrazin-6(5H)-one] | 5.30 to 6.30 | – |
| Cc1cccc(F)c1N1CCC(c2cc3nccnc3n(Cc3cncnc3C(F)(F)F)c2=O)CC1 [compound 116, 7-(1-(2-Fluoro-6-methylphenyl)piperidin-4-yl)-5-((4-(trifluoromethyl)pyrimidin-5-yl)methyl)pyrido[2,3-b]pyrazin-6(5H)-one] | 5.30 to 6.30 | – |
| Cc1ncc2cc(N3CCN(c4c(C)cccc4F)CC3)c(=O)n(Cc3ncccc3OC(F)F)c2n1 [compound 117, 8-((3-(Difluoromethoxy)pyridin-2-yl)methyl)-6-(4-(2-fluoro-6-methylphenyl)piperazin-1-yl)-2-methylpyrido[2,3-d]pyrimidin-7(8H)-one] | 5.30 to 6.30 | – |
| Cc1ncc2cc(N3CCN(c4c(C)cccc4F)CC3)c(=O)n(Cc3ncccc3C(F)(F)F)c2n1 [compound 119, 6-(4-(2-Fluoro-6-methylphenyl)piperazin-1-yl)-2-methyl-8-((3-(trifluoromethyl)pyridin-2-yl)methyl)pyrido[2,3-d]pyrimidin-7(8H)-one] | 5.30 to 6.30 | – |
| Cc1cccc(F)c1N1CCC(c2cc3nccnc3n(Cc3nccnc3C(F)F)c2=O)CC1 [compound 122, 5-((3-(Difluoromethyl)pyrazin-2-yl)methyl)-7-(1-(2-fluoro-6-methylphenyl)piperidin-4-yl)pyrido[2,3-b]pyrazin-6(5H)-one] | > 6.30 | – |
| Cc1cnc2cc([C@H]3CC[C@H](c4c(C)ccc5c4cnn5C)CC3)c(=O)n(Cc3ncccc3C(F)(F)F)c2n1 [compound 218, 7-((1r,4r)-4-(1,5-Dimethyl-1H-indazol-4-yl)cyclohexyl)-3-methyl-5-((3-(trifluoromethyl)pyridin-2-yl)methyl)pyrido[2,3-b]pyrazin-6(5H)-one] | – | [Agonist] B-arrestin2 recruitment: Average EC50 (nM) ([1]; at 10 μM): Non-Active at 10 μM |
| Cc1ccc2cc([C@H]3CC[C@H](c4c(C)cccc4F)CC3)c(=O)n(Cc3nccnc3C(C)(F)F)c2n1 [compound 269, 1-{[3-(1,1-Difluoroethyl)-2-pyrazinyl]methyl}-7-methyl-3-[(1r,4r)-4-(2-fluoro-6-tolyl)cyclohexyl]-1,8-diaza-2(1H)-naphthalenone] | – | [Agonist] B-arrestin2 recruitment: Average EC50 (nM) [1]: Non-Active |
